These results are taken from publication PMC6371959 (Antiviral Research, 2018).

The pEC50 is −log10 of the EC50, conventionally taken in molar units. A word on the CC50: it is the concentration that lowers cell viability or growth by half. A lower CC50 goes with greater toxicity to the cells. Usually EC90 stands for the point of the concentration-response curve where the effect stands at 90%. One may read the inhibition as the change of the read-out against control, counted positive when it falls.

pEC50: −log10 of the molar value. Where two headings read alike, the source gives them in different places. Bounds are passed on as bounds.

Data set [1] concerns T7FFLuc control (T7 RNA polymerase driven firefly luciferase). Put plainly: cells. In kind it is cell-based. Conditions: BSR-T7, read-out: EC50 (T7FFLuc control).
Data set [2] has as its system EBOV minigenome (WT NP). Put plainly: in vitro. The note with it: hamster.
Data set [3] deals with EBOV minigenome (WT NP). Put plainly: microbe, parasite or virus in culture. The note with it: Zaire ebolavirus; for pEC50: BSR-T7, read-out: EC50 (reduction in luciferase, EBOV minigenome).
Data set [4] can be described thus: in vitro. The note with it: hamster, CC50 (reduction in cell viability, MTT).
Data set [5] concerns Bunyamwera virus (BUNV) minigenome. Put plainly: microbe, parasite or virus in culture. In kind it is cell-based. Conditions: BSR-T7, read-out: EC50 (BUNV minigenome control).
Data set [6] relates to T7FFLuc control (T7 RNA polymerase driven firefly luciferase). Put plainly: cells. In kind it is cell-based. Conditions: read-out: EC50 (T7FFLuc control).
Data set [7] in a line: in vitro. Conditions: human, CC50 (reduction in cell viability, MTT).
In data set [8] the test system is EBOV minigenome (WT NP). Kind of data set: microbe, parasite or virus in culture. In kind it is cell-based, Ebola virus (EBOV), Makona strain. Conditions: Zaire ebolavirus, read-out: EC50 (reduction in luciferase, EBOV minigenome).
Another data set concerns Huh7-Lunet-T7 cells. Conditions: human.
The test system of the next data set is influenza NP. Conditions: cited from earlier work.

Turning to `O=C(c1cccc(/C=C2\SC(=O)N(Cc3cccc(F)c3)C2=O)c1)N1CCN(c2ccccn2)CC1` [MCCB4-8], the pEC50 in data set [1] is less than 4.00; in the data set on EBOV minigenome (WT NP) [3] it was 4.95. For the same compound, the selectivity ratio in the data set with EBOV minigenome (WT NP) [2] was 4. The same compound yielded a CC50 in the data set “in vitro [4]” of 46.5 µM.

As for `O=C(c1cccc(/C=C2\SC(=O)N(Cc3ccc(F)cc3)C2=O)c1)N1CCN(c2ccccn2)CC1` [MCCB4-12], the pEC50 in [1] is 4.31; in the data set with EBOV minigenome (WT NP) [3], 5.06. Also, the selectivity ratio in the data set with EBOV minigenome (WT NP) [2] is 6.5. The CC50 in “in vitro [4]” is 64.8 µM.

For `O=C(c1cccc(/C=C2\SC(=O)N(Cc3ccccc3)C2=O)c1)N1CCN(c2ccccn2)CC1` [MCCB4], the negative-log EC50 (pEC50) in [1] was less than 4.00; in [5], less than 4.00; in the data set on EBOV minigenome (WT NP) [3] it was 5.32; in [6] it was 4.51; in the data set on EBOV minigenome (WT NP) [8], 5.82. Moreover, in the data set with EBOV minigenome (WT NP) [3] (BSR-T7, read-out: EC90 (EBOV minigenome)), the EC90 was determined as 49 µM. Also, in the data set on EBOV minigenome (WT NP) [3] (BSR-T7, read-out: inhibition of luciferase (time course)), the inhibition at 4.8 µM turned out to be 50%. The values for the CC50 in “in vitro [4]”, in “in vitro [7]” and in the data set with Huh7-Lunet-T7 cells were greater than 100 µM, 48.8 µM and 43.2 µM, respectively.

For the compound `Cc1onc(-c2ccccc2)c1C(=O)N1CCN(c2ccc([N+](=O)[O-])cc2Cl)CC1` [Nucleozin], the “EC50 (influenza, NP aggregation)” value in the data set on influenza NP is recorded as “nM range”.
